Experimental data reported in patent publication US20050013835A1, “Stable non-dihydrate azithromycin oral suspensions” (Pfizer Inc., priority 2003, published 2005).
Where two headings read alike, the source gives them in different places.

Key:
[1] = Stability of non-dihydrate azithromycin in constituted suspension: conversion to dihydrate (form A) quantified by SS-NMR; type: physicochemical; details: for rate of conversion to azithromycin dihydrate in POS formulation II suspension as compared to bulk drug suspended in deionized water: 5° C. or 30° C., 1 to 10 days
Experimental: These POS formulations were created by individually weighing each formulation component into a 60-cc High Density Polyethylene (HDPE) bottle with closure. The resulting formulations were then dry-mixed with a Turbula blender (Glen Mills Inc. Maywood, N.J.) for 5 minutes. The powder blends were then constituted with 18 mls of water, shaken for 30 seconds and stored without agitation under controlled temperature conditions.
Upon conclusion of the storage time period the suspensions were filtered and suspended solids collected as described previously.

[2] = Effect of individual flavorings and sucrose on conversion of form G to form A in pH 8.16 buffer (SS-NMR); type: physicochemical; details: 820 mg form G + 200 mg flavoring or sucrose, 18 ml pH 8.16 buffer, room temperature
[3] = Addition of polymeric and surfactant components to slow form F conversion in formulation II (SS-NMR); type: physicochemical; details: additive level 1 % w/v, 18 ml water, 24 hours room temperature
Experimental: (§1) Upon conclusion of the storage time period the POS samples were filtered using a Buchner funnel in combination with a standard vacuum filtration apparatus. A Millipore prefilter (AP25, 47 mm) was fitted onto the funnel for the collection of suspended solids. Before filtering, the constituted POS sample was poured into a 200 ml volumetric flask and diluted to 200 ml with water. This lowered the viscosity of the sample, facilitating a quick filtration step. With the vacuum on, the diluted POS samples were poured onto the Millipore prefilter. The isolated filtrate remaining on top of the prefilter was then allowed to stand for 2-minutes in order to dry. […] After drying, the collected filtrate was placed into 4 cc Sunbroker vials and analyzed via Solid-State Nuclear Magnetic Resonance (SS-NMR) for quantification of conversion to azithromycin dihydrate (form A).
(§2) Approximately 300 mg of sample were tightly packed into a 7 mm ZrO spinner for each sample analyzed. […]
(§3) Eight pairs of resolved peaks were identified to calibrate ratios of form A in the presence of form G, N, M or F. Integral intensities of all peaks were used as input for the calibration procedure using five different binary mixtures ranging from 3 to 81% of form A with each non-dihydrate form. […] The unknown percentages of form A were then determined from the appropriate calibration graphs. […]

[4] = Addition of polymeric and surfactant components to slow form M conversion in formulation II (SS-NMR); type: physicochemical; details: additive level 1 % w/v, 18 ml water, 24 hours room temperature
Experimental: as §1, §2, §3

[5] = Surface tension of aqueous additive solution (Wilhelmy plate or literature); type: physicochemical; details: aqueous solution at the concentration used in the suspension (1 % w/v), Kruss Tensiometer, Wilhemy plate, room temperature
[6] = Effect of sucrose vehicle viscosity on conversion in flavoring-free form G suspensions (SS-NMR); type: physicochemical; details: 820 mg form G, no flavoring, room temperature
Experimental: (§4) Upon conclusion of the storage time period the POS samples were filtered using a Buchner funnel in combination with a standard vacuum filtration apparatus. A Millipore prefilter (AP25, 47 mm) was fitted onto the funnel for the collection of suspended solids. Before filtering, the constituted POS sample was poured into a 200 ml volumetric flask and diluted to 200 ml with water. This lowered the viscosity of the sample, facilitating a quick filtration step. With the vacuum on, the diluted POS samples were poured onto the Millipore prefilter. The isolated filtrate remaining on top of the prefilter was then allowed to stand for 2-minutes in order to dry. Vacuum was applied to the filtration apparatus during this drying step. Suspensions containing only bulk drug were transferred directly onto the filter paper upon completion of storage, without the described dilution step during sample preparation. After drying, the collected filtrate was placed into 4 cc Sunbroker vials and analyzed via Solid-State Nuclear Magnetic Resonance (SS-NMR) for quantification of conversion to azithromycin dihydrate (form A).
(§5) Approximately 300 mg of sample were tightly packed into a 7 mm ZrO spinner for each sample analyzed. One-dimensional ^13C spectra were collected at ambient pressure using ^1H-^13C cross-polarization magic angle spinning (CPMAS) at 295 K on a Bruker 7 mm BL CPMAS probe positioned into a wide-bore Bruker Avance DSX 500 MHz NMR spectrometer (Bruker BioSpin Corporation; Billerica, Mass.). The samples were spun at 7000 Hz corresponding to the maximum specified spinning speed for the 7 mm spinners. The fast spinning speed minimized the intensities of the spinning side bands. To optimize the signal sensitivity, the cross-polarization contact time was adjusted to 2.3 ms and the decoupling power was set to 65 kHz. Typically, a total of 600 scans were acquired, resulting in approximately a 30 minute acquisition time. The spectra were referenced using an external sample of adamantane with its most upfield resonance set to 29.5 ppm.
(§6) Eight pairs of resolved peaks were identified to calibrate ratios of form A in the presence of form G, N, M or F. Integral intensities of all peaks were used as input for the calibration procedure using five different binary mixtures ranging from 3 to 81% of form A with each non-dihydrate form. From this, one non-linear calibration graph was generated for each pair of peaks and each form. For the experimental samples, only the peaks that were totally void from excipient overlap were preferentially integrated. The unknown percentages of form A were then determined from the appropriate calibration graphs. The final result for each sample analyzed was calculated as a weighted average of the determinations from each resolved peak pair.
(§7) Viscosifying agents were incorporated into POS formulations in the absence of conversion enhancers, such as flavoring components. Specifically, a series of viscous media was prepared by dissolving various amounts of either sucrose or sorbitol in a 0.22 M phosphate buffer solution. Each solution was then adjusted with sodium hydroxide to bring the mixture to a pH of 7.8. The viscosity of each constitution media was measured using a Brookfield digital viscometer (model DV-II) equipped with a 13R sample chamber and #18 spindle. A heating jacket was also used to maintain the 8 ml sample volume to a temperature of 21° C. during measurements. 18 mls of each viscous media were then used to constitute 820 mg of form G azithromycin. The resulting suspensions were stored at room temperature for both 5 and 10-days. Upon conclusion of the storage time period the constituted samples were filtered and analyzed by SS-NMR for quantitation of dihydrate species present.

[7] = Effect of sorbitol vehicle viscosity on conversion in flavoring-free form G suspensions (SS-NMR); type: physicochemical; details: 820 mg form G, no flavoring, room temperature
Experimental: as §4, §5, §6, §7

[8] = Literature value (Johnson, Kreuter and Zografi, Colloids and Surfaces 17 (1986) 325-342); cited from earlier work
[9] = Formulation II constituted with 18 ml water, 5° C., day 1
[10] = Formulation II constituted with 18 ml water, 5° C., day 10
[11] = Formulation II constituted with 18 ml water, 30° C., day 1
[12] = Formulation II constituted with 18 ml water, 30° C., day 10
[13] = Bulk drug in 18 ml water, 5° C., day 1
[14] = Bulk drug in 18 ml water, 5° C., day 10
[15] = Bulk drug in 18 ml water, 30° C., day 1
[16] = Bulk drug in 18 ml water, 30° C., day 10
[17] = Bulk drug in 18 ml water, 5° C., day 5
[18] = Bulk drug in 18 ml water, 30° C., day 5
[19] = Formulation II constituted with 18 ml water, 5° C., day 5
[20] = Formulation II constituted with 18 ml water, 30° C., day 5
[21] = 18 ml 0.0 mg/ml sucrose solution pH 7.8, viscosity 1.2 cP
[22] = 18 ml 0.8 mg/ml sucrose solution pH 7.8, viscosity 10.2 cP
[23] = 18 ml 1.1 mg/ml sucrose solution pH 7.8, viscosity 20.2 cP
[24] = 18 ml 1.4 mg/ml sucrose solution pH 7.8, viscosity 41.7 cP
[25] = 18 ml 1.8 mg/ml sucrose solution pH 7.8, viscosity 105.0 cP
[26] = 18 ml 0.0 mg/ml sorbitol solution pH 7.8, viscosity ˜1 cP
[27] = 18 ml 1.02 mg/ml sorbitol solution pH 7.8, viscosity 3.4 cP
[28] = 18 ml 1.54 mg/ml sorbitol solution pH 7.8, viscosity 21.0 cP
[29] = 18 ml 2.04 mg/ml sorbitol solution pH 7.8, viscosity 130.9 cP

For `CCC1OC(=O)C(C)C(O[C@H]2C[C@@](C)(OC)[C@@H](O)C(C)O2)C(C)[C@@H](OC2OC(C)CC(N(C)C)[C@H]2O)[C@@](C)(O)C[C@@H](C)CN(C)[C@H](C)[C@@H](O)[C@]1(C)O` (some centres unmarked) [Form J, azithromycin monohydrate hemi-n-propanol solvate], the “rate of conversion to azithromycin dihydrate in POS formulation II suspension as compared to bulk drug suspended in deionized water” value [1] was “did not exhibit a greater conversion rate”, the “% A” value [1, 9] was 0% and the “% A” value [1, 10] was 0%. For the same molecule, the “% A” value [1, 11] was 0% and the “% A” value [1, 12] was 0%.

For `CCC1OC(=O)C(C)C(O[C@H]2C[C@@](C)(OC)[C@@H](O)C(C)O2)C(C)[C@@H](OC2OC(C)CC(N(C)C)[C@H]2O)[C@@](C)(O)C[C@@H](C)CN(C)[C@H](C)[C@@H](O)[C@]1(C)O` (some centres unmarked) [Form F, azithromycin monohydrate hemi-ethanol solvate], the “rate of conversion to azithromycin dihydrate in POS formulation II suspension as compared to bulk drug suspended in deionized water” value [1] was “much greater rates”, the “% A” value [1, 13] was 0% and the “% A” value [1, 14] was 0%. For the same molecule, the “% A” value [1, 15] was 0%, the “% A” value [1, 16] was 0% and the “% A” value [1, 9] was 6%. The “% A” value [1, 10] was 27%, the “% A” value [1, 11] was 19% and the “% A” value [1, 12] was 31%.

For `OC[C@H]1O[C@@](CO)(O[C@H]2O[C@H](CO)[C@@H](O)[C@H](O)[C@H]2O)[C@@H](O)[C@@H]1O` [Sucrose], the “Δ % Form A” value ([2]; constituted 1 day) was 2%, the “Δ % Form A” value ([2]; constituted 5 days) was 1% and the “Δ % Form A” value ([2]; constituted 10 days) was 6%. For the same molecule, the “Δ % Form A” value ([2]; constituted 10 days, listed as sucrose) was “only minimal conversion to form A”.

For `CCCCCCCCCCCCOS(=O)(=O)[O-].[Na+]` [Sodium Lauryl Sulfate], the “% Conversion to Form A Relative to the Control Sample” value [3] was 0%, the “% Conversion to Form A Relative to the Control Sample” value [4] was 0% and the “Surface Tension” value [5] was 35.8^2 dyne/cm.

For `CC[C@H]1OC(=O)[C@H](C)[C@@H](O[C@H]2C[C@@](C)(OC)[C@@H](O)[C@H](C)O2)[C@H](C)[C@@H](O[C@@H]2O[C@H](C)C[C@H](N(C)C)[C@H]2O)[C@](C)(O)C[C@@H](C)CN(C)[C@H](C)[C@@H](O)[C@]1(C)O` [Form G, azithromycin sesquihydrate], the “rate of conversion to azithromycin dihydrate in POS formulation II suspension as compared to bulk drug suspended in deionized water” value [1] was “much greater rates”, the “% A” value [1, 13] was 1% and the “% A” value [1, 17] was 6%. For the same molecule, the “% A” value [1, 14] was 12%, the “% A” value [1, 15] was 3% and the “% A” value [1, 18] was 26%. The “% A” value [1, 16] was 73%, the “% A” value [1, 9] was 72% and the “% A” value [1, 19] was 75%. For the same molecule, the “% A” value [1, 10] was 78%, the “% A” value [1, 11] was 82% and the “% A” value [1, 20] was 74%. For the same molecule, the “% A” value [1, 12] was 76%, the “5-day Storage (% Form A)” value [6, 21] was 20% and the “10-day Storage (% Form A)” value [6, 21] was 55%. For the same molecule, the “5-day Storage (% Form A)” value [6, 22] was 5%, the “10-day Storage (% Form A)” value [6, 22] was 12% and the “5-day Storage (% Form A)” value [6, 23] was 5%. For the same molecule, the “10-day Storage (% Form A)” value [6, 23] was 6%, the “5-day Storage (% Form A)” value [6, 24] was 1% and the “10-day Storage (% Form A)” value [6, 24] was 3%. The “5-day Storage (% Form A)” value [6, 25] was 0%, the “10-day Storage (% Form A)” value [6, 25] was 0% and the “5-day Storage (% Form A)” value [7, 26] was 35%. The “10-day Storage (% Form A)” value [7, 26] was 100%, the “5-day Storage (% Form A)” value [7, 27] was 7% and the “10-day Storage (% Form A)” value [7, 27] was 7%. The “5-day Storage (% Form A)” value [7, 28] was 0%, the “10-day Storage (% Form A)” value [7, 28] was 0% and the “5-day Storage (% Form A)” value [7, 29] was 0%. The “10-day Storage (% Form A)” value [7, 29] was 0%.

In the case of `CCCCCCCCOC(=O)CC(C(=O)OCCCCCCCC)S(=O)(=O)O.[Na]` (centres unmarked) [Sodium Dioctyl Sulfosuccinate], the “% Conversion to Form A Relative to the Control Sample” value [3] is listed as 0%, the “% Conversion to Form A Relative to the Control Sample” value [4] is listed as 0% and the “Surface Tension” value [8] is listed as 25.6^1 dyne/cm.

For `CCC1OC(=O)C(C)C(O[C@H]2C[C@@](C)(OC)[C@@H](O)C(C)O2)C(C)[C@@H](OC2OC(C)CC(N(C)C)[C@H]2O)[C@@](C)(O)C[C@@H](C)CN(C)[C@H](C)[C@@H](O)[C@]1(C)O` (some centres unmarked) [Form M, azithromycin monohydrate hemi-isopropanol solvate], the “rate of conversion to azithromycin dihydrate in POS formulation II suspension as compared to bulk drug suspended in deionized water” value [1] was “much greater rates”, the “% A” value [1, 13] was 0% and the “% A” value [1, 17] was 0%. For the same molecule, the “% A” value [1, 14] was 0%, the “% A” value [1, 15] was 0% and the “% A” value [1, 18] was 0%. The “% A” value [1, 16] was 0%, the “% A” value [1, 9] was 23% and the “% A” value [1, 19] was 38%. The “% A” value [1, 10] was 40%, the “% A” value [1, 11] was 28% and the “% A” value [1, 20] was 36%. The “% A” value [1, 12] was 62%.
